Test results from ChEMBL document CHEMBL4706549, “Isoquinolinone derivatives as potent CNS multi-receptor D/5-HT/5-HT/5-HT/5-HT agents: Synthesis and pharmacological evaluation” (Eur J Med Chem, 2020).
Active and inactive are the calls of the source. The rule behind the calls is not given here.

Experiments:
D(2) dopamine receptor [1] = target: D(2) dopamine receptor (Rattus norvegicus, UniProt P61169); assay: biochemical
Description: Displacement of [3H]spiperone from D2 receptor in rat striatum measured after 15 mins by liquid scintillation counting method

[2] = target: T1, 5-hydroxytryptamine receptor 1A (Rattus norvegicus, UniProt P19327); assay: biochemical
T1 sequence (P19327 whole entry): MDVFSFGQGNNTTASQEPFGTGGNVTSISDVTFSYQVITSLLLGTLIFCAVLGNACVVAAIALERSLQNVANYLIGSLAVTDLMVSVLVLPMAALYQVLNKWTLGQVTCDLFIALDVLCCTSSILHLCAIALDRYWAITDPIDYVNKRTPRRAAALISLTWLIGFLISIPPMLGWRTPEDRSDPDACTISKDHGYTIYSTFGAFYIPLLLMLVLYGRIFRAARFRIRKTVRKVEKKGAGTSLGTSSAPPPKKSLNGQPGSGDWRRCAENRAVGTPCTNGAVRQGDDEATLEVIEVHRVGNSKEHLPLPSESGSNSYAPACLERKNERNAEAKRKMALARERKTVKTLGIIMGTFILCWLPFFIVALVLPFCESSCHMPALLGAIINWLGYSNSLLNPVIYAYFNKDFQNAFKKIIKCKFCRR
Description: Displacement of [3H](+)8-OH-DPAT from rat cerebral cortex 5HT1A receptor measured after 30 mins by liquid scintillation counting method

[3] = target: 5-hydroxytryptamine receptor 2A (Rattus norvegicus, UniProt P14842); assay: biochemical
[4] = target: Adrenergic receptor alpha-1 (Rattus norvegicus, UniProt P15823+P23944+P43140)
Description: Displacement of [3H]prazosin from rat cerebral cortex alpha1 adrenergic receptor measured after 60 mins by liquid scintillation counting method

[5] = target: 5-hydroxytryptamine receptor 2C (Rattus norvegicus, UniProt P08909)
Description: Displacement of [3H]mesulergine from rat cerebral cortex 5HT2C receptor measured after 15 mins by liquid scintillation counting method

[6] = target: 5-hydroxytryptamine receptor 7 (Rattus norvegicus, UniProt P32305); assay: biochemical
Histamine H1 receptor [7] = target: Histamine H1 receptor (Cavia porcellus, UniProt P31389)
Description: Displacement of [3H]pyrilamine from guinea pig cerebellum histamine H1 receptor measured after 60 mins by liquid scintillation counting method

[8] = target: 5-hydroxytryptamine receptor 6 (Homo sapiens, UniProt P50406)
Description: Displacement of [3H]lysergic acid diethylamide from human recombinant 5HT6 receptor stably expressed in CHO cell membranes measured after 30 mins by liquid scintillation counting method

[9] = target: Sigma non-opioid intracellular receptor 1 (Homo sapiens, UniProt Q99720); assay: Binding affinity to sigma 1 receptor (unknown origin)
[10] = target: Sodium-dependent noradrenaline transporter (Homo sapiens, UniProt P23975); assay: Binding affinity to NET (unknown origin)
[11] = target: Sodium-dependent serotonin transporter (Homo sapiens, UniProt P31645); assay: Binding affinity to SERT (unknown origin)
[12] = target: T2, 5-hydroxytryptamine receptor 2A (Homo sapiens, UniProt P28223); assay: Antagonist activity at human 5HT2A receptor expressed in CHO-K1 cells assessed as inhibition of 5HT-induced calcium flux incubated for 60 mins at 37 degC followed by 15 mins incubation at room temperature and subsequent 5HT addition by calcium 4 dye based FLIPR assay; assay type: functional, cell-based
D(1A) dopamine receptor = D(1A) dopamine receptor (Homo sapiens, UniProt P21728); assay: Binding affinity to D1 receptor (unknown origin)
[13] = target: Sigma intracellular receptor 2 (Homo sapiens, UniProt Q5BJF2); assay: Binding affinity to sigma 2 receptor (unknown origin)
D(3) dopamine receptor = D(3) dopamine receptor (Homo sapiens, UniProt P35462)
Description: Binding affinity to D3 receptor (unknown origin)

Histamine H3 receptor = Histamine H3 receptor (Homo sapiens, UniProt Q9Y5N1); assay: Binding affinity to H3 receptor (unknown origin)
[14] = target: Adrenergic receptor alpha-2 (Homo sapiens, UniProt P08913+P18825+P18089); assay: Binding affinity to alpha2 adrenergic receptor (unknown origin); assay type: protein assay
[15] = target: Sodium-dependent dopamine transporter (Homo sapiens, UniProt Q01959); assay: Binding affinity to DAT (unknown origin)
[16] = target: Voltage-gated inwardly rectifying potassium channel KCNH2 (Homo sapiens, UniProt Q12809)
Description: Inhibition of human ERG expressed in HEK293 cells by whole-cell patch clamp method

[17] = Effect on spontaneous locomotor activity in Kunming mouse assessed as total distance traveled at 10 mg/kg, ig measured after 1 hr (reference value: 13579 +/- 8864 millimeter); assay type: ADME, organism-based; settings: in vivo, po
[18] = Effect on spontaneous locomotor activity in Kunming mouse assessed as total distance traveled at 1 mg/kg, ig measured after 1 hr (reference value: 13579 +/- 8864 millimeter); assay type: ADME, organism-based; settings: in vivo, po
[19] = Effect on spontaneous locomotor activity in Kunming mouse assessed as total distance traveled at 3 mg/kg, ig measured after 1 hr (reference value: 13579 +/- 8864 millimeter); assay type: ADME, organism-based; settings: in vivo, po
Mus musculus [20] = organism: Mus musculus; assay: animal or person; settings: Kunming, po
Mus musculus [21] = organism: Mus musculus; assay: animal or person; settings: Kunming, po; remark: listed apart in the source
Description: Antipsychotic activity in Kunming mouse assessed as inhibition of MK801-induced locomotor activity administered orally 30 mins prior to MK801 challenge and measured for 90 mins

[22] = mouse, in vivo, po
Description: Toxicity in po dosed Kunming mouse assessed as catalepsy

[23] = Toxicity in Kunming mouse assessed as change in body weight at 0.1 to 0.3 mg/kg, po administered for 28 days measured daily during compound dosing; assay type: organism-based; settings: in vivo, 672 h, dose 0.1-0.3 mg/kg, time 28 day
Mus musculus [24] = organism: Mus musculus; assay: animal or person; settings: Kunming, po, 1.333 h
[25] = Effect on total exploration time in Sprague-Dawley rat at 0.2 mg/kg, po measured after 1 hr by novel object recognition test; assay type: ADME, organism-based; settings: in vivo
Rattus norvegicus = assay: Cognitive enhancement effect in Sprague-Dawley rat assessed as increase in time spent in exploring novel object at 0.2 mg/kg, po administered 1 hr prior to acquisition trial and measured after 24 hrs by novel object recognition test; assay type: functional, organism-based
[26] = Therapeutic index, ratio of ED50 for toxicity in po dosed Kunming mouse assessed as catalepsy to ED50 for antipsychotic activity in Kunming mouse assessed as inhibition of MK801-induced locomotor activity; assay type: organism-based; settings: in vivo, read-out: Ratio ED50
[27] = Therapeutic index, ratio of ED50 for toxicity in po dosed Kunming mouse assessed as catalepsy to ED50 for antipsychotic activity in Kunming mouse assessed as inhibition of apomorphine-induced climbing behavior; assay type: organism-based; settings: in vivo, read-out: Ratio ED50
[28] = Displacement of [3H]ketanserin from human 5HT2A receptor expressed in CHO-K1 cells measured after 20 mins
[29] = target: 5-hydroxytryptamine receptor 1A (Homo sapiens, UniProt P08908); assay: Binding affinity to 5HT1A receptor (unknown origin)
Histamine H1 receptor [30] = target: Histamine H1 receptor (Homo sapiens, UniProt P35367); assay: Binding affinity to H1 receptor (unknown origin)
[31] = target: T2, 5-hydroxytryptamine receptor 2A; assay: Binding affinity to 5HT2A receptor (unknown origin)
[32] = target: 5-hydroxytryptamine receptor 2C (Homo sapiens, UniProt P28335); assay: Binding affinity to 5HT2C receptor (unknown origin)
D(2) dopamine receptor [33] = target: D(2) dopamine receptor (Homo sapiens, UniProt P14416); assay: Binding affinity to D2 receptor (unknown origin)

Sequence of D(2) dopamine receptor (Rattus norvegicus, UniProt P61169) (P61169 whole entry): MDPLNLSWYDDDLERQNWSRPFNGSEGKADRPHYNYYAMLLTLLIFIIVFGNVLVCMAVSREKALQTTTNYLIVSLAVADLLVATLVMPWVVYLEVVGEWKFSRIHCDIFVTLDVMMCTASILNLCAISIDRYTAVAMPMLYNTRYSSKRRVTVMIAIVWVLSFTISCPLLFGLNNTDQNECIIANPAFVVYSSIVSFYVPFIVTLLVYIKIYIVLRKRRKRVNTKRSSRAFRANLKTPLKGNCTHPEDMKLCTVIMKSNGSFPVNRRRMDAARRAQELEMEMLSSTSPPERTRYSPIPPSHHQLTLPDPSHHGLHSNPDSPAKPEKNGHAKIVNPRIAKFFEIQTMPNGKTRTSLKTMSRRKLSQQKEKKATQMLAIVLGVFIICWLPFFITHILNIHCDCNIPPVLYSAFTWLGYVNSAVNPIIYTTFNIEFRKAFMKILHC
Sequence of 5-hydroxytryptamine receptor 2A (Rattus norvegicus, UniProt P14842) (P14842 whole entry): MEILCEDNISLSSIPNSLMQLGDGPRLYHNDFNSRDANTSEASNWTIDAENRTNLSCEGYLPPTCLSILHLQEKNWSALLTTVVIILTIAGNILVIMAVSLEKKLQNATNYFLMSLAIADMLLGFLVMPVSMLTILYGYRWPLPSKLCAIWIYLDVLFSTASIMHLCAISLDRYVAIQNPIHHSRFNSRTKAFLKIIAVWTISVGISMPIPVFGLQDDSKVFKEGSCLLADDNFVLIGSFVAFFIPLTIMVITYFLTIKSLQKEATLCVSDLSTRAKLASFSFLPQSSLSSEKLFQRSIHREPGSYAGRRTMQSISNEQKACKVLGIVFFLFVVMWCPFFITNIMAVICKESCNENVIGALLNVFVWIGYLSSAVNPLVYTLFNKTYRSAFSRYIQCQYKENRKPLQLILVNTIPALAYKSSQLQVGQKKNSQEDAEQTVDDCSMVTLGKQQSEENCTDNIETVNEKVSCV
Sequence of Histamine H1 receptor (Cavia porcellus, UniProt P31389) (P31389 whole entry): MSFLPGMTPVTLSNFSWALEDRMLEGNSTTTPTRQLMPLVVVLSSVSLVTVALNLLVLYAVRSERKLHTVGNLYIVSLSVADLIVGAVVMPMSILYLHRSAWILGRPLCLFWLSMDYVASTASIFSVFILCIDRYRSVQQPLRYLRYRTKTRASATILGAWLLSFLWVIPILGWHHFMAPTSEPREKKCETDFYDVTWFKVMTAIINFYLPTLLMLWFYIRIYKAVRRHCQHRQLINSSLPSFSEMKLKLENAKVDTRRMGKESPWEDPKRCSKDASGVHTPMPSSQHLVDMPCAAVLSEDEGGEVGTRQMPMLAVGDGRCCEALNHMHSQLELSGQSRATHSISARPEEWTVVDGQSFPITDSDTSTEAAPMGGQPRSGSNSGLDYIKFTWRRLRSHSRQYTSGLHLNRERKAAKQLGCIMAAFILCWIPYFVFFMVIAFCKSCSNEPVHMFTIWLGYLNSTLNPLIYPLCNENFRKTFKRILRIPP
Sequence of D(3) dopamine receptor (P35462 whole entry): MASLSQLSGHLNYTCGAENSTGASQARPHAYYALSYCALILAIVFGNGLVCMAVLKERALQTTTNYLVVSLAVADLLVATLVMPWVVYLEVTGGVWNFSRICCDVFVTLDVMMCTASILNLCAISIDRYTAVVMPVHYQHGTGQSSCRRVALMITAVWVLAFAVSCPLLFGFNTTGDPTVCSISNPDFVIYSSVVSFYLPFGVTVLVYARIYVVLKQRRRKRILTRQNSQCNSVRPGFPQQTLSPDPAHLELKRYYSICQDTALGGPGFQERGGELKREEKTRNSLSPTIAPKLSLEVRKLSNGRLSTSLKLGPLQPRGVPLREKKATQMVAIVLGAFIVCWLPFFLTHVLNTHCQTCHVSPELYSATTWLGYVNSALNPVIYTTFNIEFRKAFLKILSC
Sequence of 5-hydroxytryptamine receptor 2C (Rattus norvegicus, UniProt P08909) (P08909 whole entry): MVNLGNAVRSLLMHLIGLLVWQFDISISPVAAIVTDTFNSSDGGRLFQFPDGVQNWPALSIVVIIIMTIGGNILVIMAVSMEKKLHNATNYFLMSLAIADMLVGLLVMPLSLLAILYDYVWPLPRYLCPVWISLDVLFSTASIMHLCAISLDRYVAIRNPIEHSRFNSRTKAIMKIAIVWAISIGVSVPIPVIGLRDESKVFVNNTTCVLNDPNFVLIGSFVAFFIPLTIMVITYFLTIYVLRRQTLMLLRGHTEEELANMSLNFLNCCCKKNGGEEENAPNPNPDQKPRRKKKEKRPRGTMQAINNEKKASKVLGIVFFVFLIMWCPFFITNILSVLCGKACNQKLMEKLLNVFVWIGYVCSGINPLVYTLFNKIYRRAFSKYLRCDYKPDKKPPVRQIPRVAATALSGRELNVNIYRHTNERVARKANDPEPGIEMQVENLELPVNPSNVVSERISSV
Sequence of 5-hydroxytryptamine receptor 7 (P32305 whole entry): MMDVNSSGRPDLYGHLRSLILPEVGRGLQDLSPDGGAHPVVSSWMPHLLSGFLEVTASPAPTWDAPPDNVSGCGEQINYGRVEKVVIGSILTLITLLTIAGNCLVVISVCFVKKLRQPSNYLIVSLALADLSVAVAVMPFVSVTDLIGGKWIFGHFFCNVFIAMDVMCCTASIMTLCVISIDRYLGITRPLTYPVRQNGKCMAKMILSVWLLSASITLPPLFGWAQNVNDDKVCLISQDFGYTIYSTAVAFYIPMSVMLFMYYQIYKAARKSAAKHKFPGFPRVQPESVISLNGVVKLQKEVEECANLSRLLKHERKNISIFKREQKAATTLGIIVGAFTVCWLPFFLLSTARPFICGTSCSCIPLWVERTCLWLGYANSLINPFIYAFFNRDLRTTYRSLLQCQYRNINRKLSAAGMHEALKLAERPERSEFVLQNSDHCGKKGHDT
T2 sequence (P28223 whole entry): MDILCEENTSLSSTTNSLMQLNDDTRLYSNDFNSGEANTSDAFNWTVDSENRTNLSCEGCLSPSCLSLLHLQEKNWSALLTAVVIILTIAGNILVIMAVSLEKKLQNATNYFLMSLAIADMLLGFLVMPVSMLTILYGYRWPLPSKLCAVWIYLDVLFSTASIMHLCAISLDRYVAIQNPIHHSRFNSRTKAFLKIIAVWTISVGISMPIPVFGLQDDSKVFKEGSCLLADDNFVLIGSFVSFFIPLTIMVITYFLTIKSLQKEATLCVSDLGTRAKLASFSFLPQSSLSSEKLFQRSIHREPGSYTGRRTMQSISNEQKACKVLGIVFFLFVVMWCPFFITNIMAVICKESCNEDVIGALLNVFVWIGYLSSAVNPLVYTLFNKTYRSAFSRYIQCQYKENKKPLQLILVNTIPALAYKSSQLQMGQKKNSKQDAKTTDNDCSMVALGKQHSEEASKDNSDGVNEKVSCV
Sequence of Sigma non-opioid intracellular receptor 1 (Q99720 whole entry): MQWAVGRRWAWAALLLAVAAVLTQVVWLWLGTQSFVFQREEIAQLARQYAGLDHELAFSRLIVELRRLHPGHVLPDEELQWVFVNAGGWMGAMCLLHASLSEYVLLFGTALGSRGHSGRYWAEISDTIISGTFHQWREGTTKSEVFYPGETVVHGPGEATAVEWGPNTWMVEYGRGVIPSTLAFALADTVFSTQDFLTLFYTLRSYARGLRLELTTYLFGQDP
Sequence of 5-hydroxytryptamine receptor 1A (Homo sapiens, UniProt P08908) (P08908 whole entry): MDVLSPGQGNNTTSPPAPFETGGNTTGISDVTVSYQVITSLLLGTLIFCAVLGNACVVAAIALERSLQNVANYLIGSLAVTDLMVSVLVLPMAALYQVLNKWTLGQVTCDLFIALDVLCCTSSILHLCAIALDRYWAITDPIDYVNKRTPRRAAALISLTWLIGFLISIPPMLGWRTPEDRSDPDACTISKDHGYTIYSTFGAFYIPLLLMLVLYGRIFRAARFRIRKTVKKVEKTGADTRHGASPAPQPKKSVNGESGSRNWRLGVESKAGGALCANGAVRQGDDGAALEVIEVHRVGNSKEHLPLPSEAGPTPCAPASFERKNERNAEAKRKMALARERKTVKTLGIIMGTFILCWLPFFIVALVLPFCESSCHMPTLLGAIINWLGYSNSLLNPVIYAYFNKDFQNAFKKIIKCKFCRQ
Sequence of Sigma intracellular receptor 2 (Q5BJF2 whole entry): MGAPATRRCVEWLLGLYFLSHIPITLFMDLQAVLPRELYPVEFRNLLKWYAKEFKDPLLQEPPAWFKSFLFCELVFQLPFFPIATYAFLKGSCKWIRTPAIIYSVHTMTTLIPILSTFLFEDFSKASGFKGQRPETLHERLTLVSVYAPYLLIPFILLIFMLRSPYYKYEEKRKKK
Sequence of Sodium-dependent noradrenaline transporter (P23975 whole entry): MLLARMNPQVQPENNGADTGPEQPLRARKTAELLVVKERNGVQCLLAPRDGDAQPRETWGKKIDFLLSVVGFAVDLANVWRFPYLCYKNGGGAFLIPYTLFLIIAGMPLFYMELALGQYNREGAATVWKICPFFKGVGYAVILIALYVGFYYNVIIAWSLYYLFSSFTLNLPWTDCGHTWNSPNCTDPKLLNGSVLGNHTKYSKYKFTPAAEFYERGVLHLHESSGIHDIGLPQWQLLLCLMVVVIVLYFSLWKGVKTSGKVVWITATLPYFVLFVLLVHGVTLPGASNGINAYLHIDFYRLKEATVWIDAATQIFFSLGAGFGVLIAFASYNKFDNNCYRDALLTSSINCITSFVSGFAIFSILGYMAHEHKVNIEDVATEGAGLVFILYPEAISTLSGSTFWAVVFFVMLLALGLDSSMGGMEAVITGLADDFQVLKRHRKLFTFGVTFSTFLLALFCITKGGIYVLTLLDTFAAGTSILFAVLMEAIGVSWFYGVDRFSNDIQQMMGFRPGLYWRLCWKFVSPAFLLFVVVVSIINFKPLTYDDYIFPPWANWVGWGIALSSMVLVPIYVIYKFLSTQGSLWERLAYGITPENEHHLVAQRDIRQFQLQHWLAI

Row | Structure (SMILES) | Ki (D(2) dopamine receptor [1]) | Ki [2] | Ki [3] | also measured
1 | CN1CCc2ccc(OCCCN3CCN(c4ccc(Cl)cc4)CC3)cc2C1=O | 268 nM | 356 nM | 589 nM | 
2 | Cn1ccc2ccc(OCCCN3CCC(c4noc5cc(F)ccc45)CC3)cc2c1=O | 9.2 nM | 12.1 nM | 3.5 nM | Ki [4]: 718 nM; Ki [5]: 129 nM; Ki [6]: 109 nM; Ki (Histamine H1 receptor [7]): 118 nM; Ki [8]: 167 nM
3 | CN1CCc2ccc(OCCN3CCC(c4noc5cc(F)ccc45)CC3)cc2C1=O | 568 nM | > 10000 nM | > 10000 nM | 
4 | CN1CCc2ccc(OCCCN3CCN(c4cccc(Cl)c4Cl)CC3)cc2C1=O | 68.2 nM | 20.1 nM | 16.8 nM | 
5 | CN1CCc2ccc(OCCCN3CCN(c4ncccn4)CC3)cc2C1=O | 1370 nM | 59.3 nM | 65.3 nM | 
6 | CN1CCc2ccc(OCCCCN3CCC(c4noc5cc(F)ccc45)CC3)cc2C1=O | 41.6 nM | 30.6 nM | 28.3 nM | 
7 | CN1CCc2ccc(OCCCN3CCN(c4ccccc4F)CC3)cc2C1=O | 117 nM | 262 nM | 306 nM | 
8 | CC1CCc2ccc(OCCCCN3CCC(c4nsc5ccccc45)CC3)cc2C1=O (stereo unspecified) | > 10000 nM | 1300 nM | 890 nM | 
9 | CN1CCc2ccc(OCCCN3CCN(Cc4ccc5c(c4)OCO5)CC3)cc2C1=O | > 10000 nM | 18.3 nM | 25.9 nM | 
10 | CN1CCc2ccc(OCCCN3CCC(C(=O)c4ccc(F)cc4F)CC3)cc2C1=O | 902 nM | > 10000 nM | > 10000 nM | 
11 | CN1CCc2ccc(OCCCN3CCC(c4noc5cc(F)ccc45)CC3)cc2C1=O |  | 9.1 nM | 0.65 nM | Ki [9]: > 1000 nM; Ki [4]: 991 nM; Ki [10]: > 1000 nM; Ki [11]: > 1000 nM; IC50 [12]: 46.3 nM; Ki [5]: 1690 nM; Ki (D(1A) dopamine receptor): > 1000 nM; Ki [13]: > 1000 nM; Ki (D(3) dopamine receptor): 226 nM; Ki [6]: 4.9 nM; Ki (Histamine H1 receptor [7]): 1200 nM; Ki (Histamine H3 receptor): > 1000 nM; Ki [14]: > 1000 nM; Ki [15]: > 1000 nM; IC50 [16]: 2310 nM
12 | O=C1CN=C(c2ccccc2Cl)c2cc([N+](=O)[O-])ccc2N1 [CLONAZEPAM] |  |  |  | Activity [17]: 762 mm; Activity [18]: 12188 mm; Activity [19]: 5784 mm
13 | Cc1nc2n(c(=O)c1CCN1CCC(c3noc4cc(F)ccc34)CC1)CCCC2 [RISPERIDONE] |  |  |  | ED50 (Mus musculus [20]): 0.02 mg/kg; ED50 (Mus musculus [21]): 0.04 mg/kg; ED50 [22]: 1.62 mg/kg; Activity [23]: Toxic; ED50 (Mus musculus [24]): 0.04 mg/kg; Activity [25]: Non-Toxic
14 | CN1CCc2ccc(OCCCN3CCN(c4ccc5ccccc5n4)CC3)cc2C1=O | > 10000 nM | 10.2 nM | > 10000 nM | 
15 | CN1CCc2ccc(OCC(O)CN3CCC(c4noc5cc(F)ccc45)CC3)cc2C1=O (stereo unspecified) | 1240 nM | 856 nM | 768 nM | 
16 | COc1ccccc1N1CCN(CCCOc2ccc3c(c2)C(=O)N(C)CC3)CC1 | 896 nM | 1110 nM | 992 nM | 
17 | CN1CCc2ccc(OCCCCN3CCN(c4cccc(Cl)c4Cl)CC3)cc2C1=O | 316 nM | 119 nM | 216 nM | 
18 | CCN(C)C(=O)Oc1cccc([C@H](C)N(C)C)c1 [RIVASTIGMINE] |  |  |  | Activity (Rattus norvegicus): Active; Activity [25]: Non-Toxic

Row | Structure (SMILES) | Ki (D(2) dopamine receptor [1]) | Ki [2] | Ki [3] | also measured
19 | O=C(CCCN1CCC(O)(c2ccc(Cl)cc2)CC1)c1ccc(F)cc1 [HALOPERIDOL] |  |  |  | selectivity ratio [26]: 2.9; ED50 (Mus musculus [20]): 0.09 mg/kg; selectivity ratio [27]: 3.5; ED50 (Mus musculus [21]): 0.11 mg/kg; ED50 [22]: 0.32 mg/kg
20 | CN1CCc2ccc(OCCCN3CCN(c4ccccn4)CC3)cc2C1=O | > 10000 nM | > 10000 nM | 1160 nM | 
21 | CN1CCc2ccc(OCCCN3CCN(c4cccc5sccc45)CC3)cc2C1=O |  | 65.2 nM |  | 
22 | CN1CCc2ccc(OCCCN3CCN(c4ccccc4)CC3)cc2C1=O | > 10000 nM | > 10000 nM | > 10000 nM | 
23 | O=c1ccc2ccc(OCCCCN3CCN(c4cccc5sccc45)CC3)cc2[nH]1 [BREXPIPRAZOLE] |  |  |  | Ki [28]: 0.47 nM
24 | O=C(CCCCN1CCC(c2noc3cc(F)ccc23)CC1)c1cc2c3c(c1)CCN3C(=O)CC2 |  |  |  | Ki [29]: 8.6 nM; Ki (Histamine H1 receptor [30]): 630 nM; Ki [31]: 0.72 nM; Ki (D(3) dopamine receptor): 1.66 nM; Ki [32]: 616 nM; Ki (D(2) dopamine receptor [33]): 2.9 nM
25 | CN1CCc2ccc(OCCCN3CCN(c4cccc(C(F)(F)F)c4)CC3)cc2C1=O | 123 nM | 1040 nM | 102 nM | 
26 | CN1COc2ccc(OCCCN3CCC(c4noc5cc(F)ccc45)CC3)cc2C1=O | 698 nM | 187 nM | 598 nM | 
27 | CN1CCc2ccc(OCC(F)CN3CCC(c4noc5cc(F)ccc45)CC3)cc2C1=O (stereo unspecified) | 359 nM | 68.2 nM | 23.7 nM | 
28 | CN1CCc2ccc(OCCCCN3CCN(c4cccc(C(F)(F)F)c4)CC3)cc2C1=O | 261 nM | 1040 nM | 132 nM | 
29 | CN1CCc2ccc(OCCCCN3CCN(c4cccc5sccc45)CC3)cc2C1=O | 162 nM | 431 nM |  | 
30 | CCN1CCc2ccc(OCCCN3CCC(c4noc5cc(F)ccc45)CC3)cc2C1=O | 249 nM | 198 nM | 92.1 nM | 
31 | CN1CCc2cc(OCCCN3CCC(c4noc5cc(F)ccc45)CC3)ccc2C1=O | > 10000 nM | > 10000 nM | 692 nM | 
32 | CN1CCc2ccc(OCCCN3CCN(c4ccc(F)cc4)CC3)cc2C1=O | 532 nM | 158 nM | 246 nM | 
33 | COc1ccc(N2CCN(CCCOc3ccc4c(c3)C(=O)N(C)CC4)CC2)cc1 | > 10000 nM | > 10000 nM | > 10000 nM | 
34 | CN1CCc2ccc(OCCCN3CCN(c4ccccc4Cl)CC3)cc2C1=O | 391 nM | 89.2 nM | 179 nM | 
35 | COc1ccccc1N1CCN(CCCCOc2ccc3c(c2)C(=O)N(C)CC3)CC1 | > 10000 nM | > 10000 nM | > 10000 nM | 
